Results taken from PMC8424300, “Identification of novel microtubule inhibitors effective in fission yeast and human cells and their effects on breast cancer cell lines” (Open Biology, 2021).
pIC50: −log10 of the molar value.

Tests used:
[1] = biological target: T1, porcine brain tubulin heterodimer (Sus scrofa, UniProt P02550+P02554); test: In vitro tubulin polymerization assay; format: biochemical; details: IC50 of tubulin polymerization
T1 construct: highly purified porcine brain tubulin heterodimer; purchased Cytoskeleton T240 (kit BK011P); host or cells: porcine brain tissue
T1 sequence (P02554 whole entry): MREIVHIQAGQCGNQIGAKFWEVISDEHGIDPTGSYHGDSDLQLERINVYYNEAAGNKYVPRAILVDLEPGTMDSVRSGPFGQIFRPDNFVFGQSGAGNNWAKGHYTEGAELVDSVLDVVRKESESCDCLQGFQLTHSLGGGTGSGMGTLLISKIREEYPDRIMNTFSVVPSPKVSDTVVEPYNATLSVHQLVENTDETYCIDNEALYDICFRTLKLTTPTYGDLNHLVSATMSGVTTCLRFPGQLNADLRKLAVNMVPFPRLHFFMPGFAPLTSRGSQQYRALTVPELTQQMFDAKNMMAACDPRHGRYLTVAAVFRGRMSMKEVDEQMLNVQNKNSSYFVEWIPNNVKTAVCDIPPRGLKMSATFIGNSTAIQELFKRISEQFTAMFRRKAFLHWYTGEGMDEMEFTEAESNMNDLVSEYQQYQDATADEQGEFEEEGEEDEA
T1 sequence (P02550 whole entry): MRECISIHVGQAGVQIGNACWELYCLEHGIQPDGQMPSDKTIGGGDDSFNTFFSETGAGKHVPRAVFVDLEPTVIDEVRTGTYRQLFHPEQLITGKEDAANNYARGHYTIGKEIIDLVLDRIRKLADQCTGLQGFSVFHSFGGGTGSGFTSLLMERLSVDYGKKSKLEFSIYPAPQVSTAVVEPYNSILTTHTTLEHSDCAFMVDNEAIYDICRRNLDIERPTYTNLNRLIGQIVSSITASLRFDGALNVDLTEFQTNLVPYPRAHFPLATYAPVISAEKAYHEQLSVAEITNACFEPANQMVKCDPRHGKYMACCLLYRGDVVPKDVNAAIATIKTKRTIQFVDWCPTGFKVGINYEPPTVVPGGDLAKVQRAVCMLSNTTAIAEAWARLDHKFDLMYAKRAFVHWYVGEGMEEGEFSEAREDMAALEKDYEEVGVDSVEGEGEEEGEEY
Protocol: To determine whether the 12 compounds affected mitotic spindle organization by directly interfering with tubulin polymerization, we performed in vitro tubulin polymerization assays. […] Tubulin polymerization was monitored every 1 min by measuring fluorescence absorbance at 340 nm for 1 h.
Figure 3. […] Tubulin was incubated with 5 µM of the compounds and DMSO for 60 min at 37°C. The fluorescence increase was monitored every minute at 340 nm. […] (b). […] Nocodazole (NOC) was used as the control. (c). […] (d) The same experiment as (c) but carried out at a different time.
The Tubulin Polymerization HTS Assay Kit (Cytoskeleton, BK011P) was used according to the manufacturer's instructions. All components were added into a 96-well microtiter plate (Corning Costar, cat. no. 3686), then the tubulin reaction mixture was quickly added to the wells, and tubulin polymerization was initiated and monitored every 1 min at 37°C for 1 h by recording fluorescence of excitation wavelength at 340 nm and emission at 450 nm. The tubulin reaction mixture was composed of 80 mM PIPES (pH 6.9), and 1 mM MgCl2, 1 mM EGTA, 1 mM GTP and 2 mg ml^−1 of highly purified porcine brain tubulin heterodimer (Cytoskeleton, cat. no. T240).

[2] = biological target: T2, tubulin (colchicine-binding site) (Sus scrofa, UniProt P02550+P02554); test: Fluorescence-based colchicine displacement assay; details: for fluorescence of the colchicine-tubulin complex: 2 µM tubulin + 2 µM colchicine set 100%
T2 construct: purchased Cytoskeleton, Inc
T2 sequence (P02554 whole entry): as the sequence (P02554 whole entry) above
T2 sequence (P02550 whole entry): as the sequence (P02550 whole entry) above
Protocol: Figure 6. […] Each value represents the mean ± s.e.m. of three independent experiments.
Reaction mixtures were excited at 380 nm and the emission was measured at 438 nm. Values were exported as Excel files and graphs were generated in Prism V9 GraphPad.

MCF-10A = test: Viability dose-response in non-cancer mammary cell line; format: cell-based, human
Protocol: The sensitivity of the inhibitors L1, J3, A15 and M2 were evaluated in three breast cancer cell lines, (BT549, CAL51 and MB-157) and a non-cancer cell line from the human mammary gland, MCF-10A (figure 8). Drug sensitivity was determined by culturing breast cancer cell lines (black lines) and the non-cancer cell line (red line) with a range of concentrations of each compound, and viability was measured after 4 days of treatment in triplicate.
Figure 8. Dose–response curves in three cancer cell lines (BT549, CAL51 and MB-157) are shown in black and non-cancer cell line; MCF-10A is shown in red. They were subjected to a dose–response matrix of the tubulin inhibitor, L1, A15, M2 and J3, respectively. Viability relative to the vehicle control was measured […] after treatment. Mean ± s.e.m. for n = 3 experiments is shown.
Cells were plated in 384-well plates at a density of 800 cells per well in 22.5 µl of media. After 24 h, 2.5 µl drug was diluted in media and was added to each well. Following 5 days of incubation, viability was assessed using CellTiter-Glo (Promega) according to the manufacture's protocol. Luminescence in each well was measured using a Synergy Neo2 plate reader (BioTek).

CAL51 cells = test: Clonogenic (colony-forming) assay; format: cell-based, human; details: 12 h exposure, 9 days growth
Protocol: Finally, a clonogenic assay was used to further evaluate the synergy effects between the L1 and Plk1 inhibitors to inhibit colony formation of breast cancer CAL51 cells after a 12 h drug exposure. The percentages of colony formation of cells treated with 0.1 nM BI2536 alone and 0.5 µM L1 alone were 89% and 67%, respectively, while cells treated with both 0.1 nM BI2536 and 0.5 µM L1 together were 2% (figure 10) indicating strong synergetic effects in colony formation.
Figure 10. Quantification of the colony formation experiments (n = 3) after a 12 h exposure. CAL51 cells were treated with vehicle control, 0.1 nM BI2536, 0.5 µM L1 or 0.1 nM BI2536 and 0.5 µM L1 for 12 h. Cells were grown for 9 days in fresh media after 12 h exposure. Mean ± s.e.m. (n = 3) is shown.
CAL51 cells were plated at a density of 200 cells per 60 mm tissue culture dish. After 24 h, they were treated with vehicle (DMSO), 0.1 nM BI2538, 0.5 µM L1 or the combination of 0.1 nM BI2538 and 0.5 µM L1, respectively, for 12 h. After an exposure, the cells were washed with warm sterile PBS, and incubated for additional 9 days in fresh media. After the incubation, cells were fixed and stained with a 20% MeOH: 0.01% crystal violet solution for 30 min. Colonies were counted using a stereomicroscope in three independent experiments.

[3] = tested on: fission yeast mutant strains (nda2-KM52, nda3-KM311, cdc25-22, cut14-208, act1-48); test: Drug sensitivity of fission yeast mutants spotted on YE medium; format: cell-based, Schizosaccharomyces pombe; details: figure S3
Protocol: The Schizosaccharomyces pombe SAK933 strain (h90 ade6 leu1 ura4-D18 GFP-atb2≪kanr sid4-mcherry≪hygr caf5::bsdR pap1Δ pmd1Δ mfs1Δ bfr1Δ dnf2 Δ erg5::ura4+) [57] used for the phenotypic screening in this study was grown at 30°C in yeast extract (YE) medium containing adenine, leucine, uridine and histidine. A haploid wild-type strain 972 h^- and its derivative strains were used in the electronic supplementary material, figure S3: nda2-km52, nda3-km311 [58], cdc25-22 [59, 60], cdc14-208 [61] and act1-48 [62] spotted onto YE medium containing the same four supplements above and incubated for 3 days at 30°C.

## COc1cc(Br)cc2c1OC(c1ccc3c(c1)OCO3)C([N+](=O)[O-])=C2 (stereo not shown) [L1]
[1]; figure 3c, 37°C, 1 h
  pIC50: 6.33
[1]; figure 3d, same experiment carried out at a different time
  pIC50: 6.34
[2]; 5 µM L1
  fluorescence of the colchicine-tubulin complex: 87%
[2]; 10 µM L1
  fluorescence of the colchicine-tubulin complex: 71%
[2]; 50 µM L1
  colchicine-tubulin interaction: abolished the interaction between colchicine and tubulin complex completely
MCF-10A; Homo sapiens, 96 h, MCF-10A, 4 days of treatment
  pIC50: 5.02
MCF-10A; ratio non-cancer / cancer lines
  IC50 in MCF-10A relative to the three breast cancer cell lines: more than threefold higher
CAL51 cells; 0.1 nM BI2536 and 0.5 µM L1 together
  percentage of colony formation: 2%
CAL51 cells; 0.5 µM L1 alone
  percentage of colony formation: 67%
[3]
  drug sensitivity of cdc25-22, cut14-208 and act1-48 mutants: No such drug hypersensitivity
